Laboratory results: patent US9278925B2, “Substituted 3-(biphenyl-3-yl)-4-hydroxy-8-methoxy-1-azaspiro[4.5]dec-3-en-2-one” (BAYER INTELLECTUAL PROPERTY GMBH, priority 2011, dated 2016)

Tests used:
[1] = target: human serum albumin (HSA) (Homo sapiens (Human), UniProt P02768); test: Protein binding to human serum albumin (HSA-Transil); conditions: buffer pH 7.4
Procedure: Assays for Determining Membrane Affinity logMA and Protein Binding to Human Serum Albumin (HSA): Determination of membrane affinity and protein binding to human serum albumin (HSA) was carried out via Transil technology (literature: A. Loidl-Stahlhofen, A. Eckert, T. Hartmann, M. […] Pharm Sci 90, 599-606 (2001)). Transil® (commercially available from Sovicell in Leipzig, Germany) are glass beads (diameter 10-12 μm) coated with a double-layer membrane of phosphatidylcholine (MA-Transil) or covalently attached human serum albumin (HSA-Transil). To determine the logMA and the protein binding constant to HSA, the commercially available TRANSIL Intestinal Absorption & HSA Binding Combined Assay Kit was used. This is a 96-well microtitre plate (96 well-MTP) which is filled with Transil and can be used to determine MA-Transil and HSA-Transil binding of in each case eight active compounds. […] Two wells serve as reference and are only filled with buffer pH 7.4. Five further wells contain MA-Transil in various increasing concentrations, the five remaining wells contain HSA-Transil in various increasing concentrations. To determine binding of an active compound to Transil, the supernatant of the wells with Transil was quantified against the reference solution without Transil via HPLC-MS coupling (HPLC-MS=high performance liquid chromatography/mass spectrometry). This is how the individual steps of the assay were carried out: From the internal substance store, the active compounds were delivered in a 96-well MTP. This plate is referred to as mother plate. […] Warfarin, whose membrane affinity and binding to HSA is known, serves to check whether the measurement is correct. […] Using a Hamilton pipetting robot Microlab STAR, the 96 active compounds from the daughter plate were divided onto 12 Transil plates in total. From each well of the daughter plate, 12 times 20 μl were removed. The concentration of each well of the Transil plate was 0.25 μmol/liter, which corresponds to a dilution of 1 to 10. […] The filled Transil plates were each resuspended for two minutes, then allowed to stand at room temperature for at least two minutes and then centrifuged at 600 rotations per minute for five minutes. The pipetting robot was then used to remove 20 μl of supernatant from each well of the Transil plate and to transfer these to a separate microtitre plate. […] Prior to quantification of the active compounds by HPLC-MS, an optimization has to be carried out for each active compound where by way of a single injection daughter ion and optimum electrical voltages are determined. […] This microtitre plate was measured by HPLC-MS using the software Discovery Quant Optimize from AB Sciex. The three pooled microtitre plates were measured by HPLC-MS using the software Discovery Quant Analyze from AB Sciex. • Sciex Triple Quad 5500 mass spectrometer (from AB Sciex) • PAL Autosampler DLW Option Software: Analyst 1.4 (from AB Sciex) • Discovery Quant Optimize (from AB Sciex) • Discovery Quant Analyze (from AB Sciex) Optimization: […] Column: Poroshell 120 SB-C18 2.7 μm 3×30 mm Injection volume: 2 μl Flow rate: 1 ml/min: […] Evaluation of the HPLC peaks was carried out using Discovery Quant Analyze. The results (logMA and binding constant to HSA Kd) were calculated using an Excel workbook provided by Sovicell.

[2] = Membrane affinity logMA (MA-Transil); assay type: physicochemical; conditions: buffer pH 7.4
Procedure: Assays for Determining Membrane Affinity logMA and Protein Binding to Human Serum Albumin (HSA):
Determination of membrane affinity and protein binding to human serum albumin (HSA) was carried out via Transil technology (literature: A. Loidl-Stahlhofen, A. Eckert, T. Hartmann, M. Schöttner J Pharm Sci 90, 599-606 (2001)). Transil® (commercially available from Sovicell in Leipzig, Germany) are glass beads (diameter 10-12 μm) coated with a double-layer membrane of phosphatidylcholine (MA-Transil) or covalently attached human serum albumin (HSA-Transil).
To determine the logMA and the protein binding constant to HSA, the commercially available TRANSIL Intestinal Absorption & HSA Binding Combined Assay Kit was used. This is a 96-well microtitre plate (96 well-MTP) which is filled with Transil and can be used to determine MA-Transil and HSA-Transil binding of in each case eight active compounds. For each active compound, the Transil plate provides a row of 12 wells. Two wells serve as reference and are only filled with buffer pH 7.4. Five further wells contain MA-Transil in various increasing concentrations, the five remaining wells contain HSA-Transil in various increasing concentrations.
To determine binding of an active compound to Transil, the supernatant of the wells with Transil was quantified against the reference solution without Transil via HPLC-MS coupling (HPLC-MS=high performance liquid chromatography/mass spectrometry).
This is how the individual steps of the assay were carried out:
From the internal substance store, the active compounds were delivered in a 96-well MTP. This plate is referred to as mother plate. Each well contained 30 μl of a 10 mmol solution of active compound in DMSO (dimethyl sulphoxide). Two wells at the start (well A1) and at the end of the plate (well H12) were filled with 30 μl of a 10 mmol solution of warfarin in DMSO. Warfarin, whose membrane affinity and binding to HSA is known, serves to check whether the measurement is correct. The mother plate was used to prepare a daughter plate with a 1 to 4000 dilution with a mixture of buffer pH 7.4 and DMSO in a ratio of 1+1. The active compound concentration of each well was 2.5 μmol/liter, the volume of each well was 400 μl.
Using a Hamilton pipetting robot Microlab STAR, the 96 active compounds from the daughter plate were divided onto 12 Transil plates in total. From each well of the daughter plate, 12 times 20 μl were removed. The concentration of each well of the Transil plate was 0.25 μmol/liter, which corresponds to a dilution of 1 to 10. The DMSO content was 5%.
The filled Transil plates were each resuspended for two minutes, then allowed to stand at room temperature for at least two minutes and then centrifuged at 600 rotations per minute for five minutes. The pipetting robot was then used to remove 20 μl of supernatant from each well of the Transil plate and to transfer these to a separate microtitre plate. Here, the supernatants of in each case four Transil plates were pooled in a microtitre plate, so that at the end there were three pooled microtitre plates with in each case 80 μl of solution and an active compound concentration of 62.5 nM per well.
Prior to quantification of the active compounds by HPLC-MS, an optimization has to be carried out for each active compound where by way of a single injection daughter ion and optimum electrical voltages are determined. To this end, the pipetting robot prepared a dilution of the mother plate of 1 to 10 000 000 in an acetonitrile/water mixture in a ratio of 8+2 in a separate microtitre plate. This microtitre plate was measured by HPLC-MS using the software Discovery Quant Optimize from AB Sciex. The three pooled microtitre plates were measured by HPLC-MS using the software Discovery Quant Analyze from AB Sciex. […]

Sequence of human serum albumin (HSA) (P02768 25-609): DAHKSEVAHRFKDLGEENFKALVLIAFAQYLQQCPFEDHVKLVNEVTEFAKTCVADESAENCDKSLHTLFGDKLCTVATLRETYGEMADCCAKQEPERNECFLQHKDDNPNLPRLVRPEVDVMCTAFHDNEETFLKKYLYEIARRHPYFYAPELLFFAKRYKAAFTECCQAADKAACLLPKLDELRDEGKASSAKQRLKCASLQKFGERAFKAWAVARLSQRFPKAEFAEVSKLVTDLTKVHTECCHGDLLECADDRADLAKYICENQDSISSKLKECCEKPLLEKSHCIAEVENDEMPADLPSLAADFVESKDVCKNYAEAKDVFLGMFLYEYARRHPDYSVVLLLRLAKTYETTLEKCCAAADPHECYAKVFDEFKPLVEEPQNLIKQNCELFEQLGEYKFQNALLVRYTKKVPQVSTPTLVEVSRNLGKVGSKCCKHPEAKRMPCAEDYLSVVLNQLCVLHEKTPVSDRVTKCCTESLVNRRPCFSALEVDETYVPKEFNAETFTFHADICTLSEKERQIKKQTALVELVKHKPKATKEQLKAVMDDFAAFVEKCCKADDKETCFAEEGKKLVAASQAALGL

| Structure (SMILES) | Kd [1] [µM] | logMA [2] |
| --- | --- | --- |
| CO[C@]1(C(F)(F)F)CC[C@]2(CC1)NC(=O)C(c1cc(-c3ccc(Cl)cc3)ccc1C)=C2O [Example 1-1, (5r,8r)-3-(4′-Chloro-4-methylbiphenyl-3-yl)-4-hydroxy-8-methoxy-8-(trifluoromethyl)-1-azaspiro[4.5]dec-3-en-2-one] | 1.73 |  |
| CO[C@]1(C(F)(F)F)CC[C@]2(CC1)NC(=O)C(c1cc(-c3ccc(Cl)c(F)c3)ccc1C)=C2O [Example 1-2, (5r,8r)-3-(4′-Chloro-3′-fluoro-4-methylbiphenyl-3-yl)-4-hydroxy-8-methoxy-8-(trifluoromethyl)-1-azaspiro[4.5]dec-3-en-2-one] | 1.79 |  |
| COC[C@]1(OC)CC[C@@]2(CC1)NC(=O)C(c1cc(-c3ccc(Cl)cc3)ccc1C)=C2O [Example 1-3, (5r,8r)-3-(4′-Chloro-4-methylbiphenyl-3-yl)-4-hydroxy-8-methoxy-8-(methoxymethyl)-1-azaspiro[4.5]dec-3-en-2-one] | 4.8 | <1.0 |
| COC[C@]1(OC)CC[C@@]2(CC1)NC(=O)C(c1cc(-c3ccc(Cl)c(F)c3)ccc1C)=C2O [Example 1-4, (5r,8r)-3-(4′-Chloro-3′-fluoro-4-methylbiphenyl-3-yl)-4-hydroxy-8-methoxy-8-(methoxymethyl)-1-azaspiro[4.5]dec-3-en-2-one] | 2.85 |  |
| CO[C@]1(C)CC[C@]2(CC1)NC(=O)C(c1cc(-c3ccc(Cl)cc3)ccc1C)=C2O [Example V.1-a, (5r,8r)-3-(4′-Chloro-4-methylbiphenyl-3-yl)-4-hydroxy-8-methoxy-8-methyl-1-azaspiro[4.5]dec-3-en-2-one] | 4.84 | 1.4 |
| CO[C@]1(C)CC[C@]2(CC1)NC(=O)C(c1cc(-c3ccc(Cl)c(F)c3)ccc1C)=C2O [Example V.2-a, (5r,8r)-3-(4′-Chloro-3′-fluoro-4-methylbiphenyl-3-yl)-4-hydroxy-8-methoxy-8-methyl-1-azaspiro[4.5]dec-3-en-2-one] | 2.8 | 1.67 |
| Cc1ccc(-c2ccc(Cl)cc2)cc1C1=C(O)[C@]2(CC[C@](O)(C(F)(F)F)CC2)NC1=O [V.1-c, (5r,8r)-3-(4′-Chloro-4-methylbiphenyl-3-yl)-4,8-dihydroxy-8-(trifluoromethyl)-1-azaspiro[4.5]dec-3-en-2-one] | 6.9 | 2.1 |
| Cc1ccc(-c2ccc(Cl)c(F)c2)cc1C1=C(O)[C@]2(CC[C@](O)(C(F)(F)F)CC2)NC1=O [V.2-c, (5r,8r)-3-(4′-Chloro-3′-fluoro-4-methylbiphenyl-3-yl)-4,8-dihydroxy-8-(trifluoromethyl)-1-azaspiro[4.5]dec-3-en-2-one] | 1.38 | 2.3 |
| COC[C@H]1CC[C@]2(CC1)NC(=O)C(c1cc(-c3ccc(Cl)cc3)ccc1C)=C2O [V.3-b, (5s,8s)-3-(4′-Chloro-4-methylbiphenyl-3-yl)-4-hydroxy-8-(methoxymethyl)-1-azaspiro[4.5]dec-3-en-2-one] | 4.2 | 2.08 |
| COC[C@H]1CC[C@]2(CC1)NC(=O)C(c1cc(-c3ccc(Cl)c(F)c3)ccc1C)=C2O [V.4-b, (5s,8s)-3-(4′-Chloro-3′-fluoro-4-methylbiphenyl-3-yl)-4-hydroxy-8-(methoxymethyl)-1-azaspiro[4.5]dec-3-en-2-one] | 3.64 | 2.13 |
